Laboratory results taken from ChEMBL document CHEMBL1201862, “PubChem BioAssay data set” (2004).
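Results reflect a 48-hour exposure of cells in 96-well plates to compound at five concentrations. GI50: concentration for 50% inhibition of growth.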 The source made the active and inactive calls. Rule as the data show it: active = GI50 up to about 1.1 µM and inactive = higher.

Columns and labels:
Test in all cases: NCI tumour cell line growth inhibition, 48 h
SNB-19 = system: SNB-19
EKVX = system: EKVX
NCI-H23 = system: NCI-H23
NCI/ADR-RES = system: NCI/ADR-RES
A549 = system: A549
SK-MEL-2 = system: SK-MEL-2
CCRF-CEM = system: CCRF-CEM
A498 = system: A498
Malme-3M = system: Malme-3M
NCI-H460 = system: NCI-H460
HCT-15 = system: HCT-15
RXF 393 = system: RXF 393
NCI-H226 = system: NCI-H226
HT-29 = system: HT-29
SK-MEL-5 = system: SK-MEL-5
HCC 2998 = system: HCC 2998
CAKI-1 = system: CAKI-1
MOLT-4 = system: MOLT-4
PC-3 = system: PC-3
SR = system: SR

SMILES | GI50 (SNB-19) | GI50 (EKVX) | GI50 (NCI-H23) | GI50 (NCI/ADR-RES) | GI50 (A549) | GI50 (SK-MEL-2) | GI50 (CCRF-CEM) | GI50 (A498) | GI50 (Malme-3M) | GI50 (NCI-H460) | GI50 (HCT-15) [µM] | GI50 (RXF 393) | GI50 (NCI-H226) | GI50 (HT-29) | GI50 (SK-MEL-5) | GI50 (HCC 2998) | GI50 (CAKI-1) | GI50 (MOLT-4) | GI50 (PC-3) | GI50 (SR)
COCOc1ccc(OC)cc1 | > 100 µM (inactive) | > 100 µM (inactive) | > 100 µM (inactive) | > 100 µM (inactive) | > 100 µM (inactive) | > 100 µM (inactive) | > 100 µM (inactive) | > 100 µM (inactive) | > 100 µM (inactive) | > 100 µM (inactive) | > 100 | > 100 µM (inactive) | > 100 µM (inactive) | > 100 µM (inactive) | > 100 µM (inactive) | > 100 µM (inactive) | > 100 µM (inactive) | > 100 µM (inactive) | – | –
CC1(C)OCC=CCO1 | > 100 µM (inactive) | > 100 µM (inactive) | > 100 µM (inactive) | > 100 µM (inactive) | > 100 µM (inactive) | > 100 µM (inactive) | 62.5 µM (inactive) | – | > 100 µM (inactive) | > 100 µM (inactive) | – | > 100 µM (inactive) | > 100 µM (inactive) | > 100 µM (inactive) | > 100 µM (inactive) | > 100 µM (inactive) | > 100 µM (inactive) | > 100 µM (inactive) | > 100 µM (inactive) | –
O=[N+]([O-])c1cc(C(F)(F)F)cc2c1SC1=Nc3ccccc3CN12 | > 100 µM (inactive) | > 100 µM (inactive) | > 100 µM (inactive) | > 100 µM (inactive) | > 100 µM (inactive) | > 100 µM (inactive) | > 100 µM (inactive) | > 100 µM (inactive) | > 100 µM (inactive) | > 100 µM (inactive) | > 100 | > 100 µM (inactive) | > 100 µM (inactive) | > 100 µM (inactive) | > 100 µM (inactive) | > 100 µM (inactive) | > 100 µM (inactive) | > 100 µM (inactive) | – | –
COC(=O)C(CCCCNC(=O)CNC(=O)OCc1ccccc1)NC(=O)C(CCCCNC(=O)CNC(=O)OCc1ccccc1)NC(=O)OCc1ccccc1 (stereo unspecified) | 93.3 µM (inactive) | – | > 100 µM (inactive) | – | > 100 µM (inactive) | 19 µM (inactive) | 42.8 µM (inactive) | > 100 µM (inactive) | 46.2 µM (inactive) | > 100 µM (inactive) | > 100 | – | > 100 µM (inactive) | > 100 µM (inactive) | 69.5 µM (inactive) | 52.2 µM (inactive) | > 100 µM (inactive) | 33.4 µM (inactive) | 96.2 µM (inactive) | 41.8 µM (inactive)
CC(C)(C)OC(=O)NCCC(=O)NC1(c2cc3ccccc3s2)CCCCC1 | 17.4 µM (inactive) | 20.9 µM (inactive) | 15.5 µM (inactive) | 18.1 µM (inactive) | 15.9 µM (inactive) | 18 µM (inactive) | 12.5 µM (inactive) | 22.9 µM (inactive) | 21.5 µM (inactive) | 14.8 µM (inactive) | 15.1 | 12.8 µM (inactive) | 21.3 µM (inactive) | 13.8 µM (inactive) | 13.1 µM (inactive) | 23.2 µM (inactive) | 21.2 µM (inactive) | 10.9 µM (inactive) | 18.5 µM (inactive) | –
N/C(=N\O)N/N=C/c1ccc2c(c1)OCCO2 | 9.82 µM (inactive) | 9.27 µM (inactive) | 25.6 µM (inactive) | 11.1 µM (inactive) | 4.7 µM (inactive) | 9.08 µM (inactive) | 33.7 µM (inactive) | 27.2 µM (inactive) | – | 7.55 µM (inactive) | 10.3 | 27.9 µM (inactive) | 4.08 µM (inactive) | 8.53 µM (inactive) | 7.21 µM (inactive) | – | 16.4 µM (inactive) | 19.1 µM (inactive) | – | –
COC(=O)/C(C#N)=C(\N)c1c(C)c2ccccc2oc1=N | > 100 µM (inactive) | > 100 µM (inactive) | – | – | > 100 µM (inactive) | > 100 µM (inactive) | – | > 100 µM (inactive) | – | > 100 µM (inactive) | > 100 | > 100 µM (inactive) | – | – | > 100 µM (inactive) | – | > 10 µM (inactive) | > 100 µM (inactive) | > 100 µM (inactive) | > 100 µM (inactive)
O=C1NC(=S)NC(=O)C1=Cc1ccc(-c2ccccc2)cc1 | > 100 µM (inactive) | > 100 µM (inactive) | > 100 µM (inactive) | 27.9 µM (inactive) | > 100 µM (inactive) | > 100 µM (inactive) | 36.3 µM (inactive) | – | > 100 µM (inactive) | > 100 µM (inactive) | > 100 | 94.4 µM (inactive) | > 100 µM (inactive) | > 100 µM (inactive) | > 100 µM (inactive) | > 100 µM (inactive) | > 100 µM (inactive) | 24.7 µM (inactive) | > 100 µM (inactive) | –
COc1cc2c(cc1OC)C1=C(C=O)c3ccc(OC)c(OC)c3C(O)N1CC2 (stereo unspecified) | 26.2 µM (inactive) | 21.6 µM (inactive) | 24.8 µM (inactive) | 26.4 µM (inactive) | 22.7 µM (inactive) | 13.8 µM (inactive) | 33.7 µM (inactive) | 21.8 µM (inactive) | 24.5 µM (inactive) | 30.8 µM (inactive) | 30.8 | – | 66.5 µM (inactive) | 21.4 µM (inactive) | 13.3 µM (inactive) | 13.2 µM (inactive) | 31.2 µM (inactive) | 12.5 µM (inactive) | 17.5 µM (inactive) | –
Cc1n[nH]c(=O)n1N=C(c1ccccc1)c1ccccc1 | > 100 µM (inactive) | > 100 µM (inactive) | > 100 µM (inactive) | > 100 µM (inactive) | > 100 µM (inactive) | > 100 µM (inactive) | > 100 µM (inactive) | > 100 µM (inactive) | 24.9 µM (inactive) | > 100 µM (inactive) | > 100 | 1.26 µM (inactive) | > 100 µM (inactive) | > 100 µM (inactive) | > 100 µM (inactive) | – | > 100 µM (inactive) | > 100 µM (inactive) | > 100 µM (inactive) | –
N/C(=N/O)N/N=C\c1cc(Cl)cc(Cl)c1O | 2.27 µM (inactive) | 6.71 µM (inactive) | 1.54 µM (inactive) | 1.32 µM (inactive) | 1.13 µM (inactive) | 9.62 µM (inactive) | 0.193 µM (active) | 6.38 µM (inactive) | 4.86 µM (inactive) | 0.0705 µM (active) | 2.02 | 5.05 µM (inactive) | 2.01 µM (inactive) | 5.2 µM (inactive) | 3.3 µM (inactive) | 2.31 µM (inactive) | 1.09 µM (active) | 0.55 µM (active) | – | –
CN(C)CC1CN=C(N)O1 (stereo unspecified) | > 100 µM (inactive) | > 100 µM (inactive) | > 100 µM (inactive) | > 100 µM (inactive) | > 100 µM (inactive) | > 100 µM (inactive) | > 100 µM (inactive) | > 100 µM (inactive) | > 100 µM (inactive) | > 100 µM (inactive) | > 100 | > 100 µM (inactive) | > 100 µM (inactive) | – | > 100 µM (inactive) | > 100 µM (inactive) | > 100 µM (inactive) | > 100 µM (inactive) | > 100 µM (inactive) | –
CCOC(=O)c1cc(Cl)ccc1OC(N)=O | > 100 µM (inactive) | > 100 µM (inactive) | > 100 µM (inactive) | > 100 µM (inactive) | > 100 µM (inactive) | > 100 µM (inactive) | > 100 µM (inactive) | > 100 µM (inactive) | – | > 100 µM (inactive) | > 100 | > 100 µM (inactive) | > 100 µM (inactive) | > 100 µM (inactive) | > 100 µM (inactive) | > 100 µM (inactive) | > 100 µM (inactive) | > 100 µM (inactive) | – | –
CC1(C)CCSC(/C=C/c2ccccc2)=N1 | 20.1 µM (inactive) | 31.6 µM (inactive) | 17.8 µM (inactive) | 14.7 µM (inactive) | 25.2 µM (inactive) | 14.6 µM (inactive) | 21.5 µM (inactive) | 20.1 µM (inactive) | 11.8 µM (inactive) | 12.1 µM (inactive) | 9.77 | 21.6 µM (inactive) | – | 18.4 µM (inactive) | 15.2 µM (inactive) | – | 14.8 µM (inactive) | 19 µM (inactive) | 16.6 µM (inactive) | –
S=C1C=C(c2ccccc2)Sc2ccccc2N1 | > 100 µM (inactive) | > 100 µM (inactive) | > 100 µM (inactive) | > 100 µM (inactive) | > 100 µM (inactive) | – | 67.5 µM (inactive) | – | > 100 µM (inactive) | > 100 µM (inactive) | > 100 | 8.95 µM (inactive) | > 100 µM (inactive) | > 100 µM (inactive) | 74.6 µM (inactive) | – | > 100 µM (inactive) | 30.4 µM (inactive) | > 100 µM (inactive) | > 100 µM (inactive)
Cc1ccc(NC(=O)c2cc3ccccc3c(/N=N/c3cc(S(=O)(=O)O)ccc3O)c2O)c(C)c1 | 15.8 µM (inactive) | 19.6 µM (inactive) | 16.6 µM (inactive) | 25.6 µM (inactive) | 22.3 µM (inactive) | 16 µM (inactive) | 3.3 µM (inactive) | 42.3 µM (inactive) | 16.4 µM (inactive) | – | 9.33 | 17.5 µM (inactive) | 15.4 µM (inactive) | 12.4 µM (inactive) | 23.7 µM (inactive) | – | 32.5 µM (inactive) | 17.1 µM (inactive) | 14.5 µM (inactive) | –
